Assay results from patent US8592415B2, “Selective kinase inhibitors” (Reaction Biology Corp., priority 2009, dated 2013).

Tests used:
JAK3 [1] = target: T1, JAK3 (Homo sapiens (Human), UniProt P52333); conditions: cited from earlier work
Target sequence in this assay (P52333 whole entry): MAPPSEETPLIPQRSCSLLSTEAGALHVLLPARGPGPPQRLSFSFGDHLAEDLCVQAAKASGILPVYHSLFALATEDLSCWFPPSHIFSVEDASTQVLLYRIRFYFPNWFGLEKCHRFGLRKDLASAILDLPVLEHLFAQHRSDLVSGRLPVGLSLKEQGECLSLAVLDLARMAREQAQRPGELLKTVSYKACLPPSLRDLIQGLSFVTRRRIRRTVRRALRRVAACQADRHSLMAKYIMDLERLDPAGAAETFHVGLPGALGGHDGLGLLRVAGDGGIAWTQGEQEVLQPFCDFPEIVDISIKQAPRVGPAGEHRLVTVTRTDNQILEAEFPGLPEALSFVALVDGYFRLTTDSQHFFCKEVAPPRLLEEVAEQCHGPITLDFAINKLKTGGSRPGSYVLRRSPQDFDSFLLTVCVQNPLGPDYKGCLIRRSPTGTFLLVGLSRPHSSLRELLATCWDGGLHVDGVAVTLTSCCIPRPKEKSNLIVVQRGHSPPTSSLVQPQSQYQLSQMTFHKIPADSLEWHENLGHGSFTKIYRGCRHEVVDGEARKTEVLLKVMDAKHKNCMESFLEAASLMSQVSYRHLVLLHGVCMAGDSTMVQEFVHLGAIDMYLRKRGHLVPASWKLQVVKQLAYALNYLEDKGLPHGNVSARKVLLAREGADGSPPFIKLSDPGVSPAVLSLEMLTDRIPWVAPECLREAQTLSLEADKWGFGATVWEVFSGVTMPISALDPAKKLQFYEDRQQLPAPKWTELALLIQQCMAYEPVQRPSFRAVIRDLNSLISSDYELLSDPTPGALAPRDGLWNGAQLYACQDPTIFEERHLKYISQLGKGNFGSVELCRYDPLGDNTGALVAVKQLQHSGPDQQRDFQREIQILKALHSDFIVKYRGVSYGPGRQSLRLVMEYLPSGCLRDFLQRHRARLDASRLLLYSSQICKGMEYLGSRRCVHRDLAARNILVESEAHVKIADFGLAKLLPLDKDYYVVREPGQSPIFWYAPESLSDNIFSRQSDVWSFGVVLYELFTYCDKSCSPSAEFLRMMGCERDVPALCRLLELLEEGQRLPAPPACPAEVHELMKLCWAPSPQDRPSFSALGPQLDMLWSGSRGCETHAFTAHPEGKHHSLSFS

[2] = system: amyotrophic lateral sclerosis (ALS); conditions: transgenic mouse model of ALS; cited from earlier work
[3] = system: autoimmune type I diabetes; conditions: NOD mouse; cited from earlier work
JAK3 [4] = target: T1, JAK3; test: In vitro JAK kinase enzymatic assay (JAK3); format: biochemical
Experimental: (§1) The JAK3 kinase is recombinant human protein (catalytic domain, amino acids 781-1124 with GST-tag), expressed in insect cells (Invitrogen Catalog PV3855). The substrate is poly-glutamic acid-tyrosin peptide, Poly-(GT) (4:1) (Sigma-Aldrich, catalog P7244). [γ-^33P]-ATP is purchased from Perkin Elmer (catalog NEG602H001MC) (EasyTides). Kinase reaction buffer is 100 mM HEPES (pH 7.5), 20 mM MgCl2, 2 mM EGTA, 0.02% Brij 35. The JAK1 (Invitrogen Catalog PV4774), JAK2 (Invitrogen Catalog PV4210) and TYK2 Invitrogen Catalog PV4790) enzymatic assays are performed in the similar way. JAK1 and JAK2 substrate is Poly-(GT) (4:1), but TYK2 substrate is peptide with sequences of […]. The reaction is carried for 2 hours at room temperature. After the reactions are finished or stopped, portion or all the reaction mixtures are transferred onto filter paper P81 Phosphocellulose paper (Whatman catalog 3698-915) for binding the final radioisotope labeled products. The unreacted phosphate are washed away without interfering with the detection of real phosphorylated products. The final product can be detected by instruments such as scintillation counter, top counter or phosphoimager. The enzymatic assays can also performed in assays described those described in the art [e.g., Ma H et al, Expert Opin. Drug Discov. 3, 607-621 (2008); Olive D M, Expert Rev Proteomics, 1, 327-341 (2004)].
(§2) Signal=Bottom+(Top−Bottom)/(1+10^((Log(IC50)−Log [I])*Hill Slope) Bottom and Top refer to the post and pre-transition baselines, respectively.
Target sequence in this assay (P52333 781-1124): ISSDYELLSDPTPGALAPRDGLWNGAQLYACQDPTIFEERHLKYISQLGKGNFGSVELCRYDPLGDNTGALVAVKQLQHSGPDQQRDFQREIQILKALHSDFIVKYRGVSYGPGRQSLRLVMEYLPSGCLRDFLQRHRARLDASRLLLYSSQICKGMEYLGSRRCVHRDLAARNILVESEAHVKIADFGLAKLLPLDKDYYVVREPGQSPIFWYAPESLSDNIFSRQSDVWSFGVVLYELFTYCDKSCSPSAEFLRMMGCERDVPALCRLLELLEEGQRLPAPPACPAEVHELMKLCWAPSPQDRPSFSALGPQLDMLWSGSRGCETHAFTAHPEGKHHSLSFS

JAK2 [5] = target: JAK2 (Homo sapiens, UniProt O60674); test: In vitro JAK kinase enzymatic assay (JAK2); format: biochemical
Sequence of JAK2 (Homo sapiens, UniProt O60674) (O60674 whole entry, looked up, the tested form may be a part): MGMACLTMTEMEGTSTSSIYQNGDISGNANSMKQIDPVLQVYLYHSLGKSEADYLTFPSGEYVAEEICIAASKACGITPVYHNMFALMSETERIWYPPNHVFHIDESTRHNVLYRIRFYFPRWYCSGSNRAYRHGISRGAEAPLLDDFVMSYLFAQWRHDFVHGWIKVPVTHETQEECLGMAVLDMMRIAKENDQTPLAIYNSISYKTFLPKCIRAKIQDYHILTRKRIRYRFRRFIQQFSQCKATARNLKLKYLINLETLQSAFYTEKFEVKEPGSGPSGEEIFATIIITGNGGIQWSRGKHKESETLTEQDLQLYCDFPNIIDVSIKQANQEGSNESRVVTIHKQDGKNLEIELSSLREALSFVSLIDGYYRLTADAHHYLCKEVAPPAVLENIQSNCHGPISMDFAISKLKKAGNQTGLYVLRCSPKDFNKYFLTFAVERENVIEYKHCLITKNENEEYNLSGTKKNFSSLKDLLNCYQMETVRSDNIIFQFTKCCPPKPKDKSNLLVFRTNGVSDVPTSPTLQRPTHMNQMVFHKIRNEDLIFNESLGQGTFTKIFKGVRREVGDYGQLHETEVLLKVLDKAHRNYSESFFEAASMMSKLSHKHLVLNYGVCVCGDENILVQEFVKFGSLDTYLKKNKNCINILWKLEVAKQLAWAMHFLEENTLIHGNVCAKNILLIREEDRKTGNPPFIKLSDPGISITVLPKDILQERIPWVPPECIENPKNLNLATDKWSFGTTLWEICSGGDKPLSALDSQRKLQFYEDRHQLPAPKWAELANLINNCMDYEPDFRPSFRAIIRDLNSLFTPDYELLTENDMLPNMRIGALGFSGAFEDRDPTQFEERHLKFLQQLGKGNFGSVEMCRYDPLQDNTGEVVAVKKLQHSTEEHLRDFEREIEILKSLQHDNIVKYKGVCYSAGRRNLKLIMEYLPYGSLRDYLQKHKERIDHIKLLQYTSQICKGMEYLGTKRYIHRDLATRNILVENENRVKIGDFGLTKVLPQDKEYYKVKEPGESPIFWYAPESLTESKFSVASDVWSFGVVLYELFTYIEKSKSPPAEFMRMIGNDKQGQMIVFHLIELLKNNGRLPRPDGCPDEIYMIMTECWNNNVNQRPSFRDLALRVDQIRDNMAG
Experimental: as §1, with “The” for “The JAK3 kinase is recombinant human protein (catalytic domain, amino acids 781-1124 with GST-tag), expressed in insect cells (Invitrogen Catalog PV3855). The”, “After the reactions are finished or stopped, portion or all the reaction mixtures are transferred onto filter paper P81 Phosphocellulose paper (Whatman catalog 3698-915) for binding the final radioisotope labeled products.” left out, “Discov.” for “Discov. 3, 607-621 (2008); Olive D M, Expert Rev Proteomics, 1, 327-341 (2004)].”
as §2

JAK2 [6] = test: In vitro JAK kinase enzymatic assay (JAK2); format: biochemical
Experimental: as §1, with “The” for “The JAK3 kinase is recombinant human protein (catalytic domain, amino acids 781-1124 with GST-tag), expressed in insect cells (Invitrogen Catalog PV3855). The”, “After the reactions are finished or stopped, portion or all the reaction mixtures are transferred onto filter paper P81 Phosphocellulose paper (Whatman catalog 3698-915) for binding the final radioisotope labeled products.” left out, “Discov.” for “Discov. 3, 607-621 (2008); Olive D M, Expert Rev Proteomics, 1, 327-341 (2004)].”
as §2

JAK1 = JAK1 (Homo sapiens, UniProt P23458); test: In vitro JAK kinase enzymatic assay (JAK1); format: biochemical
Experimental: as §1, §2

TYK2 = TYK2 (Homo sapiens (Human), UniProt P29597); test: In vitro JAK kinase enzymatic assay (TYK2); format: biochemical
Sequence of TYK2 (P29597 whole entry): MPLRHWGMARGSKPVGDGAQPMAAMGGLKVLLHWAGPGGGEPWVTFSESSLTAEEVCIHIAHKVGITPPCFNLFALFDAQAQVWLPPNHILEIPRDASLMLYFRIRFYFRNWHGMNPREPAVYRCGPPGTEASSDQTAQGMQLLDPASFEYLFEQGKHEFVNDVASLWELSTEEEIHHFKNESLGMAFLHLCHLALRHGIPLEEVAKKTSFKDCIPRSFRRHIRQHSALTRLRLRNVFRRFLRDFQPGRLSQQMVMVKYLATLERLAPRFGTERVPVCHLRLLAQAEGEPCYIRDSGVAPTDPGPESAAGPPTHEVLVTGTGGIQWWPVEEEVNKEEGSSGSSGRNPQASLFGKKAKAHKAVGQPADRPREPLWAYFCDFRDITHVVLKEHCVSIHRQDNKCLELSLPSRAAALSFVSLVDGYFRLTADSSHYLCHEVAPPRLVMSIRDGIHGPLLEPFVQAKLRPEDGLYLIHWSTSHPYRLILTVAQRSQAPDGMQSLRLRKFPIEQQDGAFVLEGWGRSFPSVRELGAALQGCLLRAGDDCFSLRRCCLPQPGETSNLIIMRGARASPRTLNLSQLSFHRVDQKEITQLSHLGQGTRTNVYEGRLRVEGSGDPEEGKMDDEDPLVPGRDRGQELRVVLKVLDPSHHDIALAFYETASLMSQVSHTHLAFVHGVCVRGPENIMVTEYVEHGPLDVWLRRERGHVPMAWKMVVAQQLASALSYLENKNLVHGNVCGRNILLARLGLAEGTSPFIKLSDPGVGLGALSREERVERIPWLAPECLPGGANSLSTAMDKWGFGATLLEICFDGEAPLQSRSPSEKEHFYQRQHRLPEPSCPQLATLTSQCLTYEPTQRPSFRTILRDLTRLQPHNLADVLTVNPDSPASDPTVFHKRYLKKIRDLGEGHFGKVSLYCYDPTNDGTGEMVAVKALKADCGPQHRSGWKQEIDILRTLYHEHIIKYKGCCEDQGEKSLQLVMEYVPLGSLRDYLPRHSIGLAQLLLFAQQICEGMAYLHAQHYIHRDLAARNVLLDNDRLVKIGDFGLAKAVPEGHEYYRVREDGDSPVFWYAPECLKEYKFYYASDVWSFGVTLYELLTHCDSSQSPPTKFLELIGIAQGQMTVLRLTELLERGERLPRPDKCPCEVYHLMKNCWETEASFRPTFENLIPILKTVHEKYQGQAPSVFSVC
Experimental: as §1, §2

SZ-4 cells = test: IL-2 dependent cell proliferation assay (MTT); format: cell-based; conditions: Homo sapiens, 72 hr, IL-2, MTT, read-out: IC50, inhibition of proliferation
From the text: The number of surviving cells is directly proportional to the level of the formazan product created.

JAK3 phosphorylation = JAK3 phosphorylation detection by immunoprecipitation and Western blot; format: cell-based, human; conditions: 0.8 μM compound with IL-2; IL-2 alone more than 12-fold
Experimental: Cell lines: The SZ-4 cell line is derived from a Sézary patient (Abrams, et al., 1991, J Investig Dermatol. 96, 31-37), and the growth of this cell line is IL-2 dependent. The cells are grown in RPMI 1640 medium supplemented with 10% fetal calf serum, 2 mM L-glutamine, penicillin 100 U/ml, streptomycin 100 ug/ml, and 10 I.U/ml IL-2 in a 5% CO2 humidified incubator at 37° C.
Protein and phosphorylation detection by immunoprecipitation and Western Blot: the above cells is used to evaluate the compounds activities of inhibiting JAK/STAT phosphorylations. After the cells are treated as described above, cells are collected and pelleted by centrifuging, cell pellets are then lysed with PI/RIPA lysis buffer (1% NP40, 1% Deoxycholic Acid, 0.1% SDS, 0.15M NaCl, 10 mM Sodium Phosphate, 1 mM PMSF, 2 mM EDTA, 10 mM NaF, 10 mM Napyrophosphate, 0.4 mM Na3VO4, 10 mM Indoacetamide, PH, 8.0) on ice. The lysed cells are centrifuged at 15,000 rpm to remove cell debris, add 5 ul of Anti-Phosphotyrosine, 4G10® Platinum (Upstate Biotechnology, Lake Placid, N.Y.), and incubate for 90 min on ice. Then, the protein A-Sepharose (Invitrogen, Carlsbad, Calif.) is added to precipitate the immune complexes for 1 hr at 4° C. The immunoprecipitates are washed 3× with lysis buffer, and suspended in loading buffer. […]

[7] = system: myeloid dendritic cells (DCs); conditions: cited from earlier work
[8] = system: adjuvant-induced arthritis; conditions: rat; cited from earlier work
[9] = system: collagen-induced arthritis; conditions: rat; cited from earlier work

Row | IC50 (JAK3 [4]) | IC50 (JAK2 [5]) | IC50 (JAK2 [6]) | IC50 (JAK1) | IC50 (TYK2) | SMILES | also measured
1 | – | – | – | – | – | COc1cc2ncnc(Nc3ccc(O)cc3)c2cc1OC [WHI-P131] | JAK3 IC50s (JAK3 [1]): low μM ranges; survival [2]: increased survival
2 | – | – | – | – | – | COc1cc2ncnc(Nc3ccc(O)cc3)c2cc1OC [JANEX-1] | onset of diabetes [3]: delayed the onset of diabetes
3 | 0.0002 µM | > 10 µM | > 20 µM | > 20 µM | > 20 µM | O=C(CCl)Nc1cccc(-c2cnc3ccccc3n2)c1 [Example 1, 2-chloro-N-(3-quinoxalin-2-ylphenyl)acetamide] | IC50 (SZ-4 cells): 0.0003 µM; JAK3 phosphorylation level increase above background level (JAK3 phosphorylation): about 2 fold
4 | – | – | – | – | – | COc1cc2ncnc(Nc3ccc(O)c(Br)c3)c2cc1OC [WHI-P-154] | effect on CD40-induced DC maturation [7]: prevented these effects
5 | – | – | – | – | – | C[C@@H]1CCN(C(=O)CC#N)C[C@@H]1N(C)c1ncnc2[nH]ccc12 [CP-690550] | effect in adjuvant-induced arthritis [8]: therapeutic effects; effect in collagen-induced arthritis [9]: therapeutic effects
6 | 0.175 µM | > 10 µM | > 20 µM | > 20 µM | > 20 µM | O=C(CN1CCCCC1)Nc1cccc(-c2cnc3ccccc3n2)c1 [Example 9, 2-(piperidin-1-yl)-N-[3-(quinoxalin-2-yl)phenyl]acetamide] | –
7 | 0.27 µM | > 10 µM | 18 µM | > 20 µM | > 20 µM | O=C(CN1CCN(c2ccccc2)CC1)Nc1cccc(-c2cnc3ccccc3n2)c1 [Example 16, 2-(4-phenylpiperazin-1-yl)-N-[3-(quinoxalin-2-yl)phenyl]acetamide] | IC50 (SZ-4 cells): 0.27 µM
8 | 0.136 µM | > 10 µM | 18.1 µM | > 20 µM | > 20 µM | N#CCC(=O)Nc1cccc(-c2cnc3ccccc3n2)c1 [Example 8, 2-cyano-N-[3-(quinoxalin-2-yl)phenyl]acetamide] | –
